According to article PMC3970910 (Biochemistry, 2013):

How the values were obtained:
human osteoclast = settings: human osteoclasts in vitro; cited from earlier work
GPR18 = settings: cited from earlier work
mouse osteoclast = settings: mouse osteoclasts in vitro; cited from earlier work
untransfected U2OS cells = test: ERK1/2 phosphorylation in untransfected U2OS cells; format: cell-based

Molecule	effect on osteoclast polarization and resorption produced by GPR55 agonists O-1602 and LPI (human osteoclast)	activity at GPR18 (GPR18)	effect on osteoclast polarization and resorption produced by GPR55 agonists O-1602 and LPI (mouse osteoclast)	Induction of ERK1/2 phosphorylation in untransfected U2OS cells (untransfected U2OS cells)
C=C(C)[C@@H]1CCC(C)=C[C@H]1c1c(O)cc(CCCCC)cc1O [CBD, cannabidiol]	attenuating the effects	low efficacy agonist	attenuating the effects	–
L-α-lysophosphatidylinositol [LPI]	–	–	–	neither LPI nor any of the antagonist compounds induced ERK1/2 phosphorylation
